Structures can show the parent of a compound that is named as a salt.
Assays:
PC-3 (prostate cancer) = assay: Chou and Talalay combination assay with beta-caryophyllene; assay type: cell-based, human; conditions: anticancer drug in combination with beta-caryophyllene; Chou and Talalay CI; 48 h
Procedure: (§1) Each solution was prepared fresh and use within 1 hour after preparation.
(§2) Cells were then harvested using trypsine-EDTA. Cells were counted using a hemocytometer and resuspended in DMEM+10% FBS medium.
(§3) Proliferation assay: Increasing concentrations of the anticancer agents and/or beta-caryophyllene were added to 96-well plate (100 μL per well). The final concentration of solvent in the culture medium was maintained below 0.5% (volume/volume) to avoid solvent toxicity.
(§4) The cells were incubated for 48 h at 37° C. and 5% CO2. Cytotoxicity was assessed using the resazurin reduction test (O'Brien et al., 2000). Fluorescence was measured on an automated 96-well Fluoroskan Ascent FI™ plate reader (Labsystems) using excitation and emission wavelengths of 530 nm and 590 nm, respectively. Resazurin was then removed.
(§5) Microplates were frozen at −20° C. overnight. Plates were thawed, a volume of 100 μl of 0.01% SDS in water was added to the wells, the plates were shaken at room temperature for 3 hours and then frozen once more at −20° C. overnight. […] Plates were shaken in the dark (at room temperature) for at least 2 hours, and fluorescence was measured on an automated 96-well Fluoroskan Ascent FI™ plate reader (Labsystems) using excitation and emission wavelengths of 360 nm and 460 nm, respectively.

MCF-7 (breast cancer) = assay: as above; assay type: cell-based, human; conditions: anticancer drug in combination with beta-caryophyllene; Chou and Talalay CI; 48 h
Procedure: as §1, §2, §3, §4, §5
(§6) Results were analyzed using the Chou and Talalay method (9) and may be interpreted as follow: Cl>1 represents an antagonist effect of beta-caryophyllene with the corresponding anticancer agent; Cl=1 represents an additive effect of beta-caryophyllene with the corresponding anticancer agent; Cl<1 represents a potentiating effect of beta-caryophyllene with the corresponding anticancer agent.

[1] = test system: MDA-MB-231 (breast cancer); assay: as above; assay type: cell-based, human; conditions: anticancer drug in combination with beta-caryophyllene; Chou and Talalay CI; 48 h
Procedure: as §1, §2, §3, §4, §5, §6

A-549 (lung cancer) = assay: as above; assay type: cell-based, human; conditions: anticancer drug in combination with beta-caryophyllene; Chou and Talalay CI; 48 h
Procedure: as §1, §2, §3, §4, §5, §6

PA-1 (ovary cancer) = assay: as above; assay type: cell-based, human; conditions: anticancer drug in combination with beta-caryophyllene; Chou and Talalay CI; 48 h
Procedure: as §1, §2, §3, §4, §5, §6

DLD-1 (colon cancer) = assay: as above; assay type: cell-based, human; conditions: anticancer drug in combination with beta-caryophyllene; Chou and Talalay CI; 48 h
Procedure: as §1, §2, §3, §4, §5, §6

[2] = test system: U-251 (human glioblastoma); assay: as above; assay type: cell-based; conditions: anticancer drug in combination with beta-caryophyllene; Chou and Talalay CI; 48 h
Procedure: as §1, §2, §3, §4, §5, §6

[3] = test system: GL-261 (murine glioblastoma); assay: as above; assay type: cell-based; conditions: anticancer drug in combination with beta-caryophyllene; Chou and Talalay CI; 48 h
Procedure: as §1, §2, §3, §4, §5, §6

B16 (murine melanoma) = assay: as above; assay type: cell-based; conditions: anticancer drug in combination with beta-caryophyllene; Chou and Talalay CI; 48 h
Procedure: as §1, §2, §3, §4, §5, §6

MEL-2 (human melanoma) = assay: as above; assay type: cell-based; conditions: anticancer drug in combination with beta-caryophyllene; Chou and Talalay CI; 48 h
Procedure: as §1, §2, §3, §4, §5, §6

tumor cell lines = assay: Comparative potentiating effect of beta-caryophyllene and Tesmilifene (DPPE) combined with 5 antitumor classes; assay type: cell-based
Procedure: as §1, §2, §3, §4, §5, §6

N.N.[Cl][Pt][Cl] [Cisplatine, Cisplatin]
Potentiating activity PC-3 (PC-3 (prostate cancer)): (6) (Antagonist effect: CI > 1)
Potentiating activity MCF-7 (MCF-7 (breast cancer)): (2) (High: CI below 0.5 at IC50)
Potentiating activity MDA [1]: (3) (Moderate: 0.5 < CI < 0.8 at IC50)
Potentiating activity A-549 (A-549 (lung cancer)): (2) (High: CI below 0.5 at IC50)
Potentiating activity PA-1 (PA-1 (ovary cancer)): (2) (High: CI < 0.5 to IC50)
Potentiating activity DLD-1 (DLD-1 (colon cancer)): (1) (Very High: CI equal or below 1 at IC20 and Cl below 0.6 to IC50)
Potentiating activity U-251 [2]: (6) (Antagonist effect: CI > 1)
Potentiating activity GL-261 [3]: (6) (Antagonist effect: CI > 1)
Potentiating activity B16 (B16 (murine melanoma)): (1) (Very High: potentiating or additive activity to IC20 and CI < 0.6 to IC50)
Potentiating activity MEL-2 (MEL-2 (human melanoma)): (1) (Very High: potentiating or additive activity to IC20 and CI < 0.6 to IC50)

CCN(CC)CCOc1ccc(Cc2ccccc2)cc1 [DPPE, Tesmilifene]
Alkylating agents % (tumor cell lines; class (1) Very High): 25%
Alkylating agents Total (60) (tumor cell lines; class (1) Very High): 15
Antimitotic agents % (tumor cell lines; class (1) Very High): 25%
Antimitotic agents Total (40) (tumor cell lines; class (1) Very High): 10
RNA/DNA antimetabolites % (tumor cell lines; class (1) Very High): 30%
RNA/DNA antimetabolites Total (20) (tumor cell lines; class (1) Very High): 6
Topoisomerase II inhibitors % (tumor cell lines; class (1) Very High): 18%
Topoisomerase II inhibitors Total (40) (tumor cell lines; class (1) Very High): 7
kinase inhibitors % (tumor cell lines; class (1) Very High): 30%
kinase inhibitors Total (20) (tumor cell lines; class (1) Very High): 6
Alkylating agents % (tumor cell lines; class (2) High): 20%
Alkylating agents Total (60) (tumor cell lines; class (2) High): 12
Antimitotic agents % (tumor cell lines; class (2) High): 20%
Antimitotic agents Total (40) (tumor cell lines; class (2) High): 8
RNA/DNA antimetabolites % (tumor cell lines; class (2) High): 15%
RNA/DNA antimetabolites Total (20) (tumor cell lines; class (2) High): 3
Topoisomerase II inhibitors % (tumor cell lines; class (2) High): 13%
Topoisomerase II inhibitors Total (40) (tumor cell lines; class (2) High): 5
kinase inhibitors % (tumor cell lines; class (2) High): 25%
kinase inhibitors Total (20) (tumor cell lines; class (2) High): 5
Alkylating agents % (tumor cell lines; class (3) Moderate): 23%
Alkylating agents Total (60) (tumor cell lines; class (3) Moderate): 14
Antimitotic agents % (tumor cell lines; class (3) Moderate): 30%
Antimitotic agents Total (40) (tumor cell lines; class (3) Moderate): 12
RNA/DNA antimetabolites % (tumor cell lines; class (3) Moderate): 15%
RNA/DNA antimetabolites Total (20) (tumor cell lines; class (3) Moderate): 3
Topoisomerase II inhibitors % (tumor cell lines; class (3) Moderate): 30%
Topoisomerase II inhibitors Total (40) (tumor cell lines; class (3) Moderate): 12
kinase inhibitors % (tumor cell lines; class (3) Moderate): 45%
kinase inhibitors Total (20) (tumor cell lines; class (3) Moderate): 9
Alkylating agents % (tumor cell lines; class (4) Weak): 10%
Alkylating agents Total (60) (tumor cell lines; class (4) Weak): 6
Antimitotic agents % (tumor cell lines; class (4) Weak): 15%
Antimitotic agents Total (40) (tumor cell lines; class (4) Weak): 6
RNA/DNA antimetabolites % (tumor cell lines; class (4) Weak): 10%
RNA/DNA antimetabolites Total (20) (tumor cell lines; class (4) Weak): 2
Topoisomerase II inhibitors % (tumor cell lines; class (4) Weak): 10%
Topoisomerase II inhibitors Total (40) (tumor cell lines; class (4) Weak): 4
kinase inhibitors % (tumor cell lines; class (4) Weak): 0%
kinase inhibitors Total (20) (tumor cell lines; class (4) Weak): 0
Alkylating agents % (tumor cell lines; class (5) Additive effect): 5%
Alkylating agents Total (60) (tumor cell lines; class (5) Additive effect): 3
Antimitotic agents % (tumor cell lines; class (5) Additive effect): 0%
Antimitotic agents Total (40) (tumor cell lines; class (5) Additive effect): 0
RNA/DNA antimetabolites % (tumor cell lines; class (5) Additive effect): 0%
RNA/DNA antimetabolites Total (20) (tumor cell lines; class (5) Additive effect): 0
Topoisomerase II inhibitors % (tumor cell lines; class (5) Additive effect): 5%
Topoisomerase II inhibitors Total (40) (tumor cell lines; class (5) Additive effect): 2
kinase inhibitors % (tumor cell lines; class (5) Additive effect): 0%
kinase inhibitors Total (20) (tumor cell lines; class (5) Additive effect): 0
Alkylating agents % (tumor cell lines; class (6) Antagonist effect): 17%
Alkylating agents Total (60) (tumor cell lines; class (6) Antagonist effect): 10
Antimitotic agents % (tumor cell lines; class (6) Antagonist effect): 10%
Antimitotic agents Total (40) (tumor cell lines; class (6) Antagonist effect): 4
RNA/DNA antimetabolites % (tumor cell lines; class (6) Antagonist effect): 30%
RNA/DNA antimetabolites Total (20) (tumor cell lines; class (6) Antagonist effect): 6
Topoisomerase II inhibitors % (tumor cell lines; class (6) Antagonist effect): 25%
Topoisomerase II inhibitors Total (40) (tumor cell lines; class (6) Antagonist effect): 10
kinase inhibitors % (tumor cell lines; class (6) Antagonist effect): 0%
kinase inhibitors Total (20) (tumor cell lines; class (6) Antagonist effect): 0
drugs exhibiting a potentiating effect when combined (tumor cell lines; drugs tested at their IC50 values): 81%

CN(C)/N=N/c1[nH]cnc1C(N)=O [Dacarbazine, dacarbazine]
Potentiating activity PC-3 (PC-3 (prostate cancer)): (4) (Weak: 0.8 < CI < 1 to IC50)
Potentiating activity MCF-7 (MCF-7 (breast cancer)): (1) (Very High: CI equal or below 1 at IC20 and Cl below 0.6 to IC50)
Potentiating activity MDA [1]: (1) (Very High: CI equal or below 1 at IC20 and Cl below 0.6 to IC50)
Potentiating activity A-549 (A-549 (lung cancer)): (2) (High: CI below 0.5 at IC50)
Potentiating activity PA-1 (PA-1 (ovary cancer)): (1) (Very High: potentiating or additive activity to IC20 and CI < 0.6 to IC50)
Potentiating activity DLD-1 (DLD-1 (colon cancer)): (3) (Moderate: 0.5 < CI < 0.8 at IC50)
Potentiating activity U-251 [2]: (1) (Very High: potentiating or additive activity to IC20 and CI < 0.6 to IC50)
Potentiating activity GL-261 [3]: (2) (High: CI < 0.5 to IC50)
Potentiating activity B16 (B16 (murine melanoma)): (1) (Very High: potentiating or additive activity to IC20 and CI < 0.6 to IC50)
Potentiating activity MEL-2 (MEL-2 (human melanoma)): (1) (Very High: potentiating or additive activity to IC20 and CI < 0.6 to IC50)

COc1cccc2c1C(=O)c1c(O)c3c(c(O)c1C2=O)C[C@@](O)(C(=O)CO)C[C@@H]3O[C@H]1C[C@H](N)[C@H](O)[C@H](C)O1 [Doxorubicin, doxorubicin hydrochloride]
Potentiating activity PC-3 (PC-3 (prostate cancer)): (4) (Weak: 0.8 < CI < 1 to IC50)
Potentiating activity MCF-7 (MCF-7 (breast cancer)): (1) (Very High: CI equal or below 1 at IC20 and Cl below 0.6 to IC50)
Potentiating activity MDA [1]: (3) (Moderate: 0.5 < CI < 0.8 at IC50)
Potentiating activity A-549 (A-549 (lung cancer)): (2) (High: CI below 0.5 at IC50)
Potentiating activity PA-1 (PA-1 (ovary cancer)): (1) (Very High: potentiating or additive activity to IC20 and CI < 0.6 to IC50)
Potentiating activity DLD-1 (DLD-1 (colon cancer)): (4) (Weak: 0.8 < CI < 1 at IC50)
Potentiating activity U-251 [2]: (1) (Very High: potentiating or additive activity to IC20 and CI < 0.6 to IC50)
Potentiating activity GL-261 [3]: (3) (Moderate: 0.5 < CI < 0.8 to IC50)
Potentiating activity B16 (B16 (murine melanoma)): (1) (Very High: potentiating or additive activity to IC20 and CI < 0.6 to IC50)
Potentiating activity MEL-2 (MEL-2 (human melanoma)): (1) (Very High: potentiating or additive activity to IC20 and CI < 0.6 to IC50)

From patent US20110008465A1, “SESQUITERPENE FORMULATIONS, KITS AND METHODS OF USE THEREOF” (priority 2007, published 2011)
